Measurements reported in US5482954A, “Signal transduction inhibitor triazole and diazole compounds” (priority 1994, dated 1996).
Where two headings read alike, the source gives them in different places.

How the values were obtained:
[1] = tested on: 5R cells; experiment: Cell adhesion to tissue culture plastic; assay type: cell-based, rat; settings: 0.03-10 μg/mL, 2 to 48 hr preincubation
Method: An adhesion assay was developed using tissue culture plastic petri dishes as the substrate. Aliquots of cells treated similarly to those in the cell motility assay were plated in triplicate onto the dishes and incubated for 90 rain at 37° C. Cells which were either poorly adherent or nonadherent were gently washed off with PBS. The remaining cells were stained with Diff Quik™ (from Baxter Scientific Products, McGaw Park. Ill., USA). Adherence was quantitated using laser densitometry and values were calculated as a percentage of the control adherence.
Cells were preincubated with compound 1 (0.03-10 μg/mL) for periods of 2 to 48 hr prior to the adhesion assay. In addition, compound 1 remained present during the assay. […] Maximal inhibition of adhesion was observed following overnight exposure of the cells to compound 1.

[2] = tested on: A2058 cells; experiment: AMF-stimulated phosphatidyl inositol metabolism; assay type: cell-based, human
Method: (§1) This example illustrates the effect of compound 1 on the generation and release of phosphatidyl inositol from either A2058 cells (stimulated with autocrine motility factor) or CHOm5 cells (stimulated with carbachol).
A2058 cells were incubated with compound 1 (1.0 μg/mL) for 24 hr, then labelled overnight with [^3 H]inositol in serum-free, low inositol IMEM (LI-IMEM). Cells were then harvested, suspended, and incubated in LI-IMEM containing 10 mM LiCl for 30 min. The metabolism assay was initiated by the addition of either AMF or serum-free medium control to aliquots of 100,000 cells. The aliquots were incubated at 37° C. for 15 and 120 min, then washed twice with ice-cold PBS and extracted with chloroform:methanol (1:2). The total inositol phosphates were removed using Dowex anion exchange column chromatography eluted with ammonium formate 1.0 M/formic acid 0.1 M buffer. Total inositol phosphates and unincorporated total intracellular [^3 H]inositol were quantitated by […]. Data are expressed as a ratio of total inositol phosphates to total unincorporated [^3 H]inositol.

[3] = tested on: A2058 cells; experiment: Type IV collagen-stimulated motility; assay type: cell-based, human; settings: data not shown
[4] = tested on: CHOm5 cells; experiment: Carbachol-stimulated generation of inositol phosphates; assay type: cell-based, Chinese hamster; settings: concentrations above 10 μM
Method: as §1
A second assay utilized CHO cells which were transfected with and stably expressed the m5 subtype of the muscarinic acetylcholine receptor.
CHOm5 cells were incubated with [^3 H]inositol (0.5 μCi/well) for 18 to 24 hr. Before the addition of test compounds, the cells were washed twice with 250 μL of serum-free media supplemented with 20 mM HEPES and 10 mM lithium chloride. The test compounds were added in a final volume of 250 μL and the reaction was allowed to proceed for 15 min at 37° C. The reaction was stopped by the addition of 250 μL of an ice-cold solution containing 1M KOH, 18 mM Na2 B4 O7, 3.8 mM EDTA and 7.6 mM NaOH. The stop solution was neutralized immediately with the addition of 250 μL of a solution containing 7.5% HCl. Released inositol phosphates were separated by anion exchange chromatography.

[5] = tested on: A2058 melanoma cells; experiment: Reversibility of inhibition of tumor cell motility; assay type: cell-based, human; settings: for activity at 1 µg/mL / activity at 5 µg/mL: Homo sapiens, read-out: Motility (% of control)
Method: The cell motility assay has been described. See, Stracke et al., Biochem. Biophys. Res. Comm., 146:339-345 (1987). Cells from the A2058 human melanoma line which was maintained in subconfluent culture were harvested with trypsin-EDTA, and were allowed to recover for 1 hr at room temperature. Cells from the 5R H-ras transformed (diploid) rat embryo fibroblast line were harvested with 2 mM EDTA in PBS without divalent cations. Cells were resuspended in serum-free media containing 0.1% BSA. This DMEM/0.1% BSA was used as the control for all subsequent assays. The assays were performed in triplicate using a 48-well chemotaxis chamber with 8μ Nucleopore, type IV collagen-coated filters. The chambers were incubated at 37° C. for 4 hr, stained and placed onto glass slides with the original cell side up so that the cell pellet could be wiped from the surface. Cells that had migrated through the pores were trapped between glass and membrane and could be quantitated by laser densitometry.
Reversibility of cell motility which had been inhibited by compound 1 was determined by removing the compound from the incubation media. Thus, A2058 melanoma cells were cultured for 24 hr in standard media (DMEM/10% FCS), washed twice with saline, and cultured with DMEM/10% FCS with (+) or without (-) compound 1 for 24 hr. Cells were then washed and the treatments were reversed. The resulting cells are classified as "treated" (±, run as a control to test cell response following the incubation and washing steps), "washout" (±, run to evaluate reversibility), and "control". Control cells were washed and fed with standard media alone at each change point. Table E provides the results expressed as a percent of control cell motility at two concentrations of compound 1.

[6] = Side effects in phase I clinical study; assay type: in vivo, human; settings: oral, to date
Description: Seven patients with solid tumor metastasis are undergoing treatment via oral administration of compound 1 under the FDA approved phase I clinical study. […] PT# is patient number. Response is the sum of the products of bidirectional measurements.

[7] = tested on: A2058 cells; experiment: Colony formation (soft agar); assay type: cell-based, human
Method: Colony formation: Compound 1 was evaluated at three concentrations for inhibition of colony formation in both the A2058 and OVCAR3 cell lines. Colony number was determined in triplicate and compared to the vehicle control run on each 24 well plate to provide a percent. Colonies greater than 60 cells were counted at 100× under phase contrast. […] In a second study, selected compounds were evaluated for their effect on density-independent growth of the A2058 cell line in soft agar. Percent inhibition was determined over triplicate experiments involving three log molar concentrations of the test compound.

## NC(=O)c1nnn(Cc2cc(Cl)c(C(=O)c3ccc(Cl)cc3)c(Cl)c2)c1N [Compound 1]
[1]
  inhibition of cell adhesion: dose-dependent inhibition of cell adhesion
[2]; 1.0 μg/mL, 24 hr
  inhibition of AMF-stimulated phosphatidyl inositol hydrolysis: significantly inhibited
[2]; Homo sapiens, A2058, 1.0 μg/mL, 24 hr, read-out: inhibition of AMF-stimulated phosphatidyl inositol hydrolysis
  inhibition at 1 µg/mL: ~45%
[2]; treated, unstimulated cells
  effect on unstimulated cells (inositol phosphates): no appreciable effect
[3]
  motility due to type IV collagen stimulation: inhibited motility
[4]
  inhibition of carbachol-stimulated generation of inositol phosphates: partially inhibited
[5]; A2058, 1 μg/mL (+/-)
  activity at 1 µg/mL: 97%
[5]; A2058, 1 μg/mL (-/+)
  activity at 1 µg/mL: 59%
[5]; A2058, 5 μg/mL (+/-)
  activity at 5 µg/mL: 94%
[5]; A2058, 5 μg/mL (-/+)
  activity at 5 µg/mL: 27%
[5]; removal of the compound from the culture medium
  reversibility of motility inhibition: could be reversed by removal of the compound from the culture medium
[6]
  abnormalities of blood cellular composition: no abnormalities of blood cellular composition
  bone marrow depression (white cell counts): do not show any bone marrow depression
  liver or kidney function abnormalities: do not show any liver or kidney function abnormalities
  neurological toxicity, hair loss or electrolyte imbalances: no neurological toxicity, hair loss or electrolyte imbalances
[7]; Table H, soft agar
  COLONY FORMATION (% OF CONTROL): 11.1 ± 5 % OF CONTROL
[7]; Table K
  Colony Formation (% of Control): 11.1 ± 5 % of Control
[7]; concentrations as low as 0.2 μM
  inhibition of colony formation: significant inhibitory effects
